For orientation: Ki means a measure of affinity in units of concentration, obtained from inhibition or displacement.

Each structure is given as a SMILES string.

The assay has as its target T1, hCRTH2 (Homo sapiens, UniProt Q9Y5Y4).
T1 construct: expressed in transfected cells; host or cells: HEK cell line expressing hCRTH2 (HEK-hCRTH2); membranes
T1 sequence (Q9Y5Y4 1-395): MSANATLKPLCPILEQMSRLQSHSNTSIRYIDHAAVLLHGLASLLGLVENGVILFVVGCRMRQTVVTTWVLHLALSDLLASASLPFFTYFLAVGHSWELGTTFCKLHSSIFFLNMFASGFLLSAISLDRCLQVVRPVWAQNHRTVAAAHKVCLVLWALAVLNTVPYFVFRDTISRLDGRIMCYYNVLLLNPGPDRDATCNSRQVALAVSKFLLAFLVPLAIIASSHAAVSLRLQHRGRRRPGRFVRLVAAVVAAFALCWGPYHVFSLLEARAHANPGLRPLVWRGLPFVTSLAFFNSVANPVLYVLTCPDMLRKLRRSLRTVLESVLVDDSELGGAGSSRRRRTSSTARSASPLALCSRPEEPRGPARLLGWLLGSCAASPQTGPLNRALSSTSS
As to the kind of experiment: Radioligand binding assay ([3H]PGD2 competition, membranes from HEK-hCRTH2 cell line). Particulars: 0.7 nM [3H]PGD2, membrane protein from HEK-hCRTH2 cell line, 60 min at room temperature; values given as ranges. How it is done: Radioligand Binding Assay.
Radioligand binding assays were performed at room temperature in 10 mM HEPES/KOH pH 7.4, 1 mM EDTA containing 10 mM MnCl2 and 0.7 nM [^3H]PGD2 (NEN, 171 Ci mmol^−1), in a final volume of 0.2 ml. Competing ligands were diluted in dimethylsulfoxide (Me2SO) that was kept constant at 1% (v/v) of the final incubation volume. The reaction was initiated by the addition of 8-20 μg of membrane protein prepared from a HEK-hCRTH2 cell line. Total and non-specific binding were determined in the absence and the presence of 10 μM PGD2, respectively. Under these conditions, specific binding (total minus non-specific) of the radioligand to the receptor reached equilibrium within 50 min and was stable up to 180 min. The reaction was routinely conducted for 60 min at room temperature and terminated by rapid filtration through prewetted Unifilters GF/C (Packard), using a Tomtec MachIII semi-automated harvester (for HEK-hCRTH2). The filters were then washed with 4 ml of the same buffer and residual radioligand bound to the filter was determined by liquid scintillation counting following equilibration in 25 μl Ultima Gold F™ (Unifilter) (Packard). The Ki (in nM) values for representative compounds of the present invention are as follows: ≦5: Examples 3.1, 5.1, 6.1, 7.1, 8.1/8A, 9.1, 26, 27.1, 28.1, 29.1, 30, 31.1, 31.3, 32.1, 32.4, 33.1, 34.1, 36.1, 38.1, 39, 40, 41; >5 and ≦10: Examples, 4, 5.3, 29.2; >10 and ≦50: Examples 1, 10, 14, 21, 22, 25, 31.4, 32.3, 35, 36.2, 37; >50 and ≦100: Examples 2, 5.4, 6.2, 27.2, 28.2; >100: Examples 3.2, 5.2, 7.2, 8.2, 9.2, 11, 12, 13, 15, 16, 17, 18, 19, 20, 23, 24, 31.2, 32.2, 33.2, 34.2, 38.2.
The compound `CC(C)(C)OC(=O)N1CCC(c2cnnn2C2CCc3c(CC(=O)O)c4ccccc4n3C2)CC1` (stereo not drawn) [Example 23, 4-[3-(10-Carboxymethyl-6,7,8,9-tetrahydropyrido[1,2-α]indol-7-yl)-3H-[1,2,3]triazol-4-yl]-piperidine-1-carboxylic acid tert-butyl ester] registered an inhibitory constant (Ki) above 100 nM.
Take `CC(O)(c1ccc(F)cc1)c1cnnn1C1CCc2c(CC(=O)O)c3ccccc3n2C1` (single isomer, unassigned) [Example 5.4, (7-{5-[1-(4-Fluoro-phenyl)-1-hydroxy-ethyl]-[1,2,3]triazol-1-yl}-6,7,8,9-tetrahydropyrido[1,2-α]indol-10-yl)-acetic acid]: the Ki is 50 to 100 nM.
As to `O=C(O)Cc1c2n(c3ccccc13)CC(n1nncc1Cc1ccc(F)cc1F)CC2` (single isomer, unassigned) [Example 40, {7-[5-(2,4-difluorobenzyl)-1H-1,2,3-triazol-1-yl]-6,7,8,9-tetrahydropyrido[1,2-a]-indol-10-yl}acetic acid], the Ki is at most 5 nM.
Compound `O=C(O)Cc1c2n(c3c(F)cccc13)C[C@H](n1nncc1Cc1ccc(F)cc1)CC2` [Example 8.1, {(7R)-4-Fluoro-7-[5-(4-fluorobenzyl)-1H-[1,2,3]triazol-1-yl]-6,7,8,9-tetrahydropyrido[1,2-a]-indol-10-yl}-acetic acid] gave a Ki of at most 5 nM.
For `CN(C)c1ccc(-c2cn(C3CCc4c(CC(=O)O)c5ccccc5n4C3)nn2)cc1` (stereo not drawn) [Example 19, {7-[4-(4-Dimethylamino-phenyl)-[1,2,3]triazol-1-yl]-6,7,8,9-tetrahydropyrido[1,2-α]indol-10-yl}-acetic acid] the value was above 100 nM; for `CC(O)(c1ccc(F)cc1)c1cnnn1C1CCc2c(CC(=O)O)c3ccccc3n2C1` (single isomer, unassigned) [Example 5.1, (7-{5-[1-(4-Fluoro-phenyl)-1-hydroxy-ethyl]-[1,2,3]triazol-1-yl}-6,7,8,9-tetrahydropyrido[1,2-α]indol-10-yl)-acetic acid], at most 5 nM.
For `O=C(O)Cc1c2n(c3ccccc13)CC(n1nncc1C(O)c1ccc(Br)cc1)CC2` (stereo not drawn) [Example 22, (7-{5-[(4-Bromo-phenyl)-hydroxy-methyl]-[1,2,3]triazol-1-yl}-6,7,8,9-tetrahydropyrido[1,2-α]indol-10-yl)-acetic acid] the value was 10 to 50 nM; for `O=C(O)Cc1c2n(c3c(F)cccc13)CC(n1nncc1Cc1ccc(Cl)cc1)CC2` (single isomer, unassigned) [Example 34.2, {7-[5-(4-chlorobenzyl)-1H-1,2,3-triazol-1-yl]-4-fluoro-6,7,8,9-tetrahydropyrido[1,2-a]indol-10-yl}acetic acid], above 100 nM.
For `CC(c1ccccc1)c1cnnn1[C@@H]1CCc2c(CC(=O)O)c3ccccc3n2C1` (single isomer, unassigned) [Example 29.2] the value was 5 to 10 nM.
For `O=C(O)Cc1c2n(c3c(F)cccc13)CC(n1nncc1Cc1ccc(F)c(F)c1)CC2` (single isomer, unassigned) [Example 33.1, {7-[5-(3,4-difluorobenzyl)-1H-1,2,3-triazol-1-yl]-4-fluoro-6,7,8,9-tetrahydropyrido[1,2-a]-indol-10-yl}acetic acid], the Ki is at most 5 nM.
For `CC(c1ccccc1)c1cnnn1C1CCc2c(CC(=O)O)c3cccc(F)c3n2C1` (single isomer, unassigned) [Example 32.4, {4-Fluoro-7-[5-(1-phenyl-ethyl)-[1,2,3]triazol-1-yl]-6,7,8,9-tetrahydropyrido[1,2-α]indol-10-yl}-acetic acid] the value was at most 5 nM.
`O=C(O)Cc1c2n(c3ccccc13)CC(n1nncc1Cc1ccccc1)CC2` (single isomer, unassigned) [Example 3.2, [7-(5-Benzyl-[1,2,3]triazol-1-yl)-6,7,8,9-tetrahydropyrido[1,2-α]indol-10-yl]-acetic acid] displayed a Ki above 100 nM.
To `C=C(c1ccc(F)cc1)c1cnnn1C1CCc2c(CC(=O)O)c3ccccc3n2C1` (stereo not drawn) [Example 26, (7-{5-[1-(4-Fluoro-phenyl)-vinyl]-[1,2,3]triazol-1-yl}-6,7,8,9-tetrahydropyrido[1,2-α]indol-10-yl)-acetic acid] belongs at most 5 nM; to `CC(C)C(O)c1cn(C2CCc3c(CC(=O)O)c4ccccc4n3C2)nn1` (stereo not drawn) [Example 12, {7-[4-(1-Hydroxy-2-methyl-propyl)-[1,2,3]triazol-1-yl]-6,7,8,9-tetrahydropyrido[1,2-α]indol-10-yl}-acetic acid], above 100 nM.
Consider `O=C(O)Cc1c2n(c3ccccc13)CC(n1nncc1Cc1ccccc1)CC2` (single isomer, unassigned) [Example 3.1, [7-(5-Benzyl-[1,2,3]triazol-1-yl)-6,7,8,9-tetrahydropyrido[1,2-α]indol-10-yl]-acetic acid], for which the Ki was at most 5 nM.
`O=C(O)Cc1c2n(c3ccccc13)C[C@H](n1nncc1C(c1ccc(F)cc1)c1ccc(F)cc1)CC2` [Example 30, ((R)-7-{5-[Bis-(4-fluoro-phenyl)-methyl]-[1,2,3]triazol-1-yl}-6,7,8,9-tetrahydropyrido[1,2-α]indol-10-yl)-acetic acid] gave a Ki of at most 5 nM.
Regarding `CS(=O)(=O)NCCCCc1cn(C2CCc3c(CC(=O)O)c4ccccc4n3C2)nn1` (stereo not drawn) [Example 11, {7-[4-(4-Methanesulfonylamino-butyl)-[1,2,3]triazol-1-yl]-6,7,8,9-tetrahydropyrido[1,2-α]indol-10-yl}-acetic acid], the Ki was above 100 nM.
For `O=C(O)Cc1c2n(c3ccccc13)CC(n1nncc1C1(c3ccccc3)CCCC1)CC2` (single isomer, unassigned) [Example 6.1, {7-[5-(1-Phenyl-cyclopentyl)-[1,2,3]triazol-1-yl]-6,7,8,9-tetrahydropyrido[1,2-α]indol-10-yl}-acetic acid] the value was at most 5 nM; for `O=C(O)Cc1c2n(c3ccccc13)CC(n1nncc1C(O)(c1ccccc1)C(F)(F)F)CC2` (stereo not shown) [Example 35, {7-[5-(2,2,2-trifluoro-1-hydroxy-1-phenyl-ethyl)-1H-1,2,3-triazol-1-yl]-6,7,8,9-tetrahydropyrido[1,2-a]indol-10-yl}acetic acid], 10 to 50 nM.
To `CC(O)(c1ccccc1)c1cn(C2CCc3c(CC(=O)O)c4ccccc4n3C2)nn1` (stereo not drawn) [Example 13, {7-[4-(1-Hydroxy-1-phenyl-ethyl)-[1,2,3]triazol-1-yl]-6,7,8,9-tetrahydropyrido[1,2-α]indol-10-yl}-acetic acid] belongs above 100 nM; to `O=C(O)Cc1c2n(c3c(F)cccc13)CC(n1nncc1Cc1ccccc1)CC2` (single isomer, unassigned) [Example 7.2, [7-(5-Benzyl-[1,2,3]triazol-1-yl)-4-fluoro-6,7,8,9-tetrahydropyrido[1,2-α]indol-10-yl]-acetic acid], above 100 nM.
For `Cc1nnn(C2CCc3c(CC(=O)O)c4cccc(F)c4n3C2)c1Cc1ccc(F)cc1` (single isomer, unassigned) [Example 36.2, {4-Fluoro-7-[5-(4-fluorobenzyl)-4-methyl-1H-1,2,3-triazol-1-yl]-6,7,8,9-tetrahydropyrido[1,2-a]indol-10-yl}acetic acid] the value was 10 to 50 nM; for `O=C(O)Cc1c2n(c3ccccc13)CC(n1cc(-c3cccc4ccccc34)nn1)CC2` (stereo not drawn) [Example 18, [7-(4-Naphthalen-1-yl-[1,2,3]triazol-1-yl)-6,7,8,9-tetrahydropyrido[1,2-α]indol-10-yl]-acetic acid], above 100 nM; for `CC(C)(O)c1ccc(-c2cn(C3CCc4c(CC(=O)O)c5ccccc5n4C3)nn2)cc1` (stereo not drawn) [Example 16, (7-{4-[4-(1-Hydroxy-1-methyl-ethyl)-phenyl]-[1,2,3]triazol-1-yl}-6,7,8,9-tetrahydropyrido[1,2-α]indol-10-yl)-acetic acid], above 100 nM.
Compound `O=C(O)Cc1c2n(c3ccccc13)CC(n1nncc1C(O)(c1ccc(F)cc1)c1ccc(F)cc1)CC2` (single isomer, unassigned) [Example 27.1] yielded an inhibition constant Ki of at most 5 nM.

For the origin of these results see patent US9023864B2, “Indole derivatives as CRTH2 receptor antagonists” (Merck Sharp & Dohme Corp., priority 2009, dated 2015).
